Experimental data taken from PubChem BioAssay (NCI).
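How tested: cells in 96-well plates exposed to compound for 48 hours at five concentrations. The concentration for full growth arrest is given as TGI.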

Experiments:
Test in all cases: NCI-60 cell line screen, 48 h
HCT-116 colon = system: HCT-116 colon
HOP-62 NSCLC = system: HOP-62 NSCLC
IGROV1 ovarian = system: IGROV1 ovarian
RXF 393 renal = system: RXF 393 renal
OVCAR-5 ovarian = system: OVCAR-5 ovarian
NCI-H460 lung = system: NCI-H460 lung
HOP-92 NSCLC = system: HOP-92 NSCLC
KM20L2 colon = system: KM20L2 colon
TK-10 renal = system: TK-10 renal
OVCAR-3 ovarian = system: OVCAR-3 ovarian
RXF-631 renal = system: RXF-631 renal
LXFL 529 NSCLC = system: LXFL 529 NSCLC
M19-MEL melanoma = system: M19-MEL melanoma
SK-MEL-5 melanoma = system: SK-MEL-5 melanoma
UO-31 renal = system: UO-31 renal
HOP-18 NSCLC = system: HOP-18 NSCLC
HT29 colon = system: HT29 colon
SN12C renal = system: SN12C renal
K-562 leukemia = system: K-562 leukemia
OVCAR-4 ovarian = system: OVCAR-4 ovarian
HL-60(TB) leukemia = system: HL-60(TB) leukemia
SF-268 CNS = system: SF-268 CNS
HCT-15 colon = system: HCT-15 colon
SW-620 colon = system: SW-620 colon
DMS 273 small cell lung = system: DMS 273 small cell lung
SK-OV-3 ovarian = system: SK-OV-3 ovarian
RPMI-8226 leukemia = system: RPMI-8226 leukemia
MALME-3M melanoma = system: MALME-3M melanoma
MOLT-4 leukemia = system: MOLT-4 leukemia
NCI-H23 lung = system: NCI-H23 lung
SR leukemia = system: SR leukemia
UACC-257 melanoma = system: UACC-257 melanoma
KM12 colon = system: KM12 colon
786-0 renal = system: 786-0 renal
SF-295 CNS = system: SF-295 CNS
DMS 114 small cell lung = system: DMS 114 small cell lung
UACC-62 melanoma = system: UACC-62 melanoma
SNB-78 CNS = system: SNB-78 CNS
ACHN renal = system: ACHN renal
U251 CNS = system: U251 CNS
SNB-75 CNS = system: SNB-75 CNS
COLO 205 colon = system: COLO 205 colon
SF-539 CNS = system: SF-539 CNS
EKVX NSCLC = system: EKVX NSCLC
OVCAR-8 ovarian = system: OVCAR-8 ovarian
HCC-2998 colon = system: HCC-2998 colon
NCI-H226 lung = system: NCI-H226 lung
CAKI-1 renal = system: CAKI-1 renal
A549 NSCLC = system: A549 NSCLC
DLD-1 colon = system: DLD-1 colon
SK-MEL-2 melanoma = system: SK-MEL-2 melanoma
M14 melanoma = system: M14 melanoma
SNB-19 CNS = system: SNB-19 CNS
A498 renal = system: A498 renal
NCI-H522 lung = system: NCI-H522 lung
XF 498 CNS = system: XF 498 CNS

Measured: TGI

COC1CCC2C(=O)CCCC2O1 (stereo unspecified)
> 100 µM: all assays above
